Assay [1] concerns the target T1, ZAT (Homo sapiens, UniProt P01009, E366K). The following applies: background studies; cited from earlier work.
In assay [2] the target is T1, ZAT. Nature of the assay: In vitro polymerization assay (native gel, western blot). The following applies: FIG. 3 western blot; peptides at 1 mM with Z-AT, 4 hours 37° C. then 30 minutes 62° C.; versus control (no peptide). It is filed as biochemical. Here is the method:
An in vitro polymerization assay was employed to screen the ability of a pharmacological chaperone to inhibit polymerization. […] In brief, M-AT or Z-AT was incubated at 37° C. for 4 hours, followed by 30 minutes at 62° C. The samples were then run on a Bis-Tris native gel and either blotted onto PVDF or detected with colloidal blue staining. Peptides at 1 mM were incubated with equal amounts (50 ng) of Z-AT for 4 hours at 37° C., followed by a 62° C. pulse for 30 minutes. Samples were separated on a 4-12% Bis-Tris native gel, blotted onto PVDF and the blot probed with a human specific antibody for alpha-1-antitrypsin. Additionally, in the case of samples from human plasma, a western blot was performed to assess the level of alpha-1-antitrypsin. polymerization. The inducible HeLa cell line retains Z-AT intracellularly as little Z-AT can be detected in the media. The Z-AT contained in lysates is apparently not processed to complex N-glycans as the molecular weight is slightly lower than M-AT purified from plasma, which is consistent with the findings of others. The intracellular material is endo H sensitive indicative of high mannose N-linked glycans.
For orientation: In western blotting, separated proteins are transferred to a membrane and probed.

For a further assay, the target named is alpha-1-antitrypsin (Homo sapiens, UniProt P01009, E366K). Nature of the assay: Alpha-1-antitrypsin elastase inhibition assay. The class given is biochemical. An excerpt:
An elastase inhibition assay was developed to measure the effects of a test compound on the inhibitory activity of secreted Z-AT. In one embodiment, to detect elastase activity, bovine elastin was labeled with BODIPY, which causes the fluorescence of the conjugate to be quenched. This non-fluorescent substrate was digested by elastase to yield highly fluorescent fragments. Alternatively, the non-fluorescent substrate may be digested by another protease to yield fluorescent fragments. The activity of α-1-antitrypsin was monitored by measuring a decrease in fluorescent signal, indicative of the elastase inhibitory activity of α-1-antitrypsin. […] In one embodiment, the resulting fluorescence was monitored in a Perkin Elmer Victor V plate reader using absorption and emission filters for fluorescein […].
Additional cell lines to screen for pharmacologic chaperones and to identify surrogate markers of Z-AT expression were developed using an inducible promoter system. The inducible systems are useful for determining if particular chaperones need to be present prior to Z-AT translation in the endoplasmic reticulum to induce secretion of Z-AT and/or inhibit […]

The target of assay [3] is T1, ZAT. In words: Western blot of intracellular ZAT in ZAT inducible CHO cells. It is filed as cell-based. On the set-up: expressed in transfected cells; host or cells: inducible serum-free CHO cells (tetracycline repressor control). The following applies: for intracellular levels of ZAT, normalized densitometry: FIG. 14 graph. Here is the method: Serum Free CHO and HeLa cells in which expression of Z-AT is under control of the tetracycline repressor were grown to confluence. To analyze the intra- and extracellular production of Z-AT, media was collected and cells were lysed in non-ionic detergent. Media and lysates were analyzed on a NuPAGE SDS gel followed by western blotting utilizing a human specific sheep anti-human alpha-1-antitrypsin polyclonal antibody.
Furthermore, two compounds, compounds V and VI, decrease intracellular levels of ZAT. These compounds are shown in Table 2, along with structural data for each compound. […] The levels of intracellular levels of ZAT are even lower when treated at the higher concentration. […] FIG. 13 depicts a western blot of intracellular levels of ZAT after 1mM treatment. […] FIG. 14 is a graph of showing intracellular levels of ZAT after 1mM treatment with compounds V and VI. […] FIG. 15 is an in vitro polymerization assay with compounds I-VI, as well as Ac-TTAI-NH2 (SEQ ID NO: 6), a vehicle control and non-treated alpha-1-antitrypsin. There is an increase in polymerization after treatment with the low-molecular weight compounds.

In assay [4] the target is T1, ZAT. In words: Extracellular alpha-1-antitrypsin activity in media of ZAT inducible CHO cells. The class given is cell-based. Also noted: expressed in transfected cells; host or cells: inducible serum-free CHO cells (tetracycline repressor control). Conditions: FIG. 11, increasing treatment. The text has this:
An elastase inhibition assay was developed to measure the effects of a test compound on the inhibitory activity of secreted Z-AT. In one embodiment, to detect elastase activity, bovine elastin was labeled with BODIPY, which causes the fluorescence of the conjugate to be quenched. This non-fluorescent substrate was digested by elastase to yield highly fluorescent fragments. Alternatively, the non-fluorescent substrate may be digested by another protease to yield fluorescent fragments. The activity of α-1-antitrypsin was monitored by measuring a decrease in fluorescent signal, indicative of the elastase inhibitory activity of α-1-antitrypsin. A test compound was added to determine its effect on the elastase inhibitory activity of α-1-antitrypsin. In one embodiment, the resulting fluorescence was monitored in a Perkin Elmer Victor V plate reader using absorption and emission filters for fluorescein […].
Serum free CHO cell lines were developed, expressing M-AT, Z-AT (Glu342Lys) and the S mutation (Glu264Val), so that secreted alpha-1-antitrypsin activity could be measured directly from media without interference from bovine, alpha-1-antitrypsin introduced into the media from serum. Briefly, cDNA was isolated by PCR from first strand human liver cDNA using conventional cloning methods. […]

The target of assay [5] is T1, ZAT. Conditions: background studies; cited from earlier work. The source holds these as a separate data set.
The mark [6] stands for this setting: 100 μM, FIG. 9 western blot, ZAT inducible CHO cells.
Where [7] appears, read: 1 mM, FIG. 10 western blot, ZAT inducible CHO cells, compared with 100 μM.

Peptide text beside a SMILES is read from it.

T1 sequence (P01009 25-418 E366K): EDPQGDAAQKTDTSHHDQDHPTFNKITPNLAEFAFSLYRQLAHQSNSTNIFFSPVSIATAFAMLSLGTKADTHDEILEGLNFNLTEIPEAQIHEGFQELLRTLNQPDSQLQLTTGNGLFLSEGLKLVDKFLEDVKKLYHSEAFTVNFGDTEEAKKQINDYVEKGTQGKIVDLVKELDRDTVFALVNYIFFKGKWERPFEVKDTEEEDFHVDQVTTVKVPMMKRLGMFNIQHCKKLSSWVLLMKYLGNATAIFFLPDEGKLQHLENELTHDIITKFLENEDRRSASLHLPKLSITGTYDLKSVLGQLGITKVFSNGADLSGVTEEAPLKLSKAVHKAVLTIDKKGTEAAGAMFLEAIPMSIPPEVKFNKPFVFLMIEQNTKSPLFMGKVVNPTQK
Sequence of alpha-1-antitrypsin (P01009 25-418 E366K): as above

As to `O=C(O)CCCc1ccccc1` [4-phenylbutyric acid], on ZAT [1], the “secretion of Z-AT from cells” value was “can increase secretion of Z-AT from cells”.
Take `CC(=O)NC(C(=O)NC(CCC(=O)O)C(=O)NC(C)C(=O)NC(C)C(N)=O)C(C)O` (stereo not drawn) [Ac-TEAA-NH2, Ac-Thr-Glu-Ala-Ala-NH2] (Ac-TEAA-NH2; configuration not given here): the alpha-1-antitrypsin polymerization entry at ZAT [2] is “significantly less alpha-1-antitrypsin polymerization”.
As for `CC(=O)NC(C(=O)NC(CCC(=O)O)C(=O)NC(C)C(=O)NC(C)C(=O)NCC(N)=O)C(C)O` (stereo not drawn) [Ac-TEAAG-NH2, Ac-Thr-Glu-Ala-Ala-Gly-NH2] (Ac-TEAAG-NH2; configuration not given here), at ZAT [2], the alpha-1-antitrypsin polymerization entry is “significantly less alpha-1-antitrypsin polymerization”.
`CC(=O)NC(C(=O)NC(CCC(=O)O)C(=O)NC(C(=O)NC(C)C(N)=O)C(C)C)C(C)O` (stereo not drawn) [Ac-TEVA-NH2, Ac-Thr-Glu-Val-Ala-NH2] (Ac-TEVA-NH2; configuration not given here): the alpha-1-antitrypsin polymerization result on ZAT [2] is listed as “significantly less alpha-1-antitrypsin polymerization”. For the same compound, on alpha-1-antitrypsin (FIG. 2), the “inhibition of elastase activity by alpha-1-antitrypsin in the presence of peptide” value is reported as “inhibits elastase activity significantly, in fact to a level comparable to that of wild type alpha-1-antitrypsin”. Besides, the “inhibition of alpha-1-antitrypsin activity by the peptide” value at alpha-1-antitrypsin (at concentrations required to inhibit polymerization) was “does not inhibit alpha-1-antitrypsin activity”.
On to `CC(=O)NC(C(=O)NC(CO)C(=O)NC(C)C(=O)NC(C)C(N)=O)C(C)O` (stereo not drawn) [Ac-TSAA-NH2, Ac-Thr-Ser-Ala-Ala-NH2] (Ac-TSAA-NH2; configuration not given here), for which, at ZAT [2], the alpha-1-antitrypsin polymerization entry is on record as “significantly less alpha-1-antitrypsin polymerization”.
Consider `COc1ccc(C(O)C(=O)NNC(=O)N[C@H](C(N)=O)C(C)O)cc1O` (stereo partly drawn) [Compound VI], for which the “intracellular levels of ZAT” value is “lower levels of ZAT” on ZAT [3] (setting [6]); “even lower” at ZAT [3] (setting [7]); “significant reduction in ZAT levels intracellularly” at ZAT [3] (1 mM, FIG. 13 western blot). In addition, on ZAT [3] (1 mM), the “intracellular levels of ZAT, normalized densitometry” value was “Levels are lower”.
Consider `COc1ccc(C(O)C(=O)NNC(=O)N[C@@H](CO)C(N)=O)cc1O` (stereo partly drawn) [Compound V], for which the “extracellular levels of ZAT and alpha-1-antitrypsin activity” value on ZAT [4] is “higher activity levels with higher treatment”. Besides, the “intracellular levels of ZAT” value at ZAT [3] (setting [6]) is given as “lower levels of ZAT”; at ZAT [3] (setting [7]), “even lower”; at ZAT [3] (1 mM, FIG. 13 western blot), “significant reduction in ZAT levels intracellularly”. Moreover, the “intracellular levels of ZAT, normalized densitometry” value on ZAT [3] (1 mM) is reported as “Levels are lower”.
Turning to `O=C(O)CC(O)(CC(=O)O)C(=O)O` [citrate], the “in vitro polymerization of Z-AT” value on ZAT [5] was “block in vitro polymerization of Z-AT”.
As for Ac-TTAI-NH2, the “in vitro polymerization of Z-AT” value with ZAT [5] is on record as “block in vitro polymerization of Z-AT”.

These data come from patent US9867862B2, “Compounds and method for treating or preventing disease conditions associated with alpha-1-antitrypsin” (AMICUS THERAPEUTICS, INC., priority 2010, dated 2018).
